Test [1] deals with NCI-H295R. The experiment in a line: IC50 (antiproliferative, ATP content). To be noted: 48 h.
The subject of test [2] is NCI-H295R. Briefly: maximal response (efficacy) relative to DMSO (0%) and doxorubicin (-100%); higher = less growth inhibition. To be noted: 48 h.

The term IC50 denotes the concentration needed to halve the response being measured. `Nc1nc(N)c2nc(CNc3ccc(C(=O)N[C@@H](CCC(=O)O)C(=O)O)cc3)cnc2n1` came in with an IC50 in the test with NCI-H295R [1] of 8.41 µM. Also, in the test on NCI-H295R [2], the maximal response is -79.1%.
In the case of `COC(COC(N)=O)C1=C(N2CC2)C(=O)C(C)=C(N2CC2)C1=O` (stereo not drawn), the IC50 in the test on NCI-H295R [1] came out at 0.75 µM. Further, the maximal response with NCI-H295R [2] was -120%.
In the test with NCI-H295R [1], `COc1cccc2c1C(=O)c1c(O)c3c(c(O)c1C2=O)C[C@@](O)(C(C)=O)C[C@@H]3O[C@H]1C[C@H](N)[C@H](O)[C@H](C)O1` returned an IC50 of 10.6 µM. Further, the maximal response in the test on NCI-H295R [2] was -126%.
Turning to `COc1cc2c(cc1OC)-c1c/c(=N\c3c(C)cc(C)cc3C)n(C)c(=O)n1CC2.Cl`, the IC50 in the test on NCI-H295R [1] came to 21.1 µM. The maximal response in the test with NCI-H295R [2] is -149%.
In turn, `CC[C@@]1(O)C(=O)OCc2c1cc1n(c2=O)Cc2cc3c([N+](=O)[O-])cccc3nc2-1` yielded a concentration for half-maximal inhibition (IC50) in the test with NCI-H295R [1] of 16.8 µM. Further, in the test with NCI-H295R [2], the maximal response was -91.1%.
For `Oc1c(Cl)cc(Cl)c(Cl)c1Cc1c(O)c(Cl)cc(Cl)c1Cl`, in that order: 15 µM and -121%.
With `CC[C@H]1CN2CCc3cc(OC)c(OC)cc3[C@@H]2C[C@@H]1C[C@H]1NCCc2cc(OC)c(OC)cc21`, in the test on NCI-H295R [1], the IC50 is 2.11 µM. Further, in the test with NCI-H295R [2], the maximal response was -130%.
As to `C=C1CC[C@H](O)C/C1=C/C=C1\CCC[C@]2(C)[C@@H]([C@H](C)CCCC(C)(C)O)CC[C@@H]12`, the IC50 with NCI-H295R [1] worked out at 26.6 µM. For the same compound, in the test on NCI-H295R [2], the maximal response was -166%.
Taken in the same sequence, the figures for `COc1cc(-c2ccc(-[n+]3nc(-c4ccccc4)nn3-c3ccc([N+](=O)[O-])cc3)c(OC)c2)ccc1-[n+]1nc(-c2ccccc2)nn1-c1ccc([N+](=O)[O-])cc1.[Cl-].[Cl-]` were 10.6 µM and -132%.
Regarding `CC[C@]2(O)CC[C@H]3[C@@H]4CC\C1=C\CCC[C@@H]1[C@H]4CC[C@]23C`, in the test on NCI-H295R [1], the IC50 is 16.8 µM. Also, in the test on NCI-H295R [2], the maximal response is -60.8%.
Compound `C[n+]1cc2c3c(ccc2c2ccc4cc5c(cc4c21)OCO5)OCO3` gave a half-inhibitory concentration (IC50) with NCI-H295R [1] of 4.73 µM. Moreover, in the test on NCI-H295R [2], the maximal response is -119%.
`O[C@H]2C[C@@H](O[C@H](C)[C@H]2O[C@@H]3O[C@H](C)[C@@H](O[C@H]4C[C@H](O)[C@H](OC)[C@@H](C)O4)[C@@H](O)C3)O[C@H]1CC[C@@]5(C)[C@@](CC[C@]6([H])[C@@]([H])5C[C@@H](O)[C@@]7(C)[C@@](O)6CC[C@@H]7[C@@](CO8)=CC8=O)([H])C1` had an IC50 with NCI-H295R [1] of 0.237 µM. Moreover, the maximal response in the test with NCI-H295R [2] was -111%.
For the compound `COc1cc2c(cc1O)CCN[C@]21CS[C@@H]2c3c(OC(C)=O)c(C)c4c(c3[C@H](COC1=O)N1[C@@H]2[C@H]2c3c(cc(C)c(OC)c3O)C[C@@H]([C@@H]1O)N2C)OCO4`, the IC50 in the test on NCI-H295R [1] came to 0.0094 µM. In the test with NCI-H295R [2], the maximal response was -117%.
As to `O=C1NCN(c2ccccc2)C12CCN(CCCC(c1ccc(F)cc1)c1ccc(F)cc1)CC2`, the IC50 in the test with NCI-H295R [1] was determined as 11.9 µM. The maximal response in the test with NCI-H295R [2] is -137%.
`CCN(CC)CCCN(c1ccccc1)C1Cc2ccccc2C1.Cl` showed an IC50 in the test with NCI-H295R [1] of 16.8 µM. In addition, in the test on NCI-H295R [2], the maximal response is -138%.
Compound `CC1=C(/C=C/C(C)=C/C=C/C(C)=C/C(=O)Nc2ccc(O)cc2)C(C)(C)CCC1` had an IC50 in the test with NCI-H295R [1] of 9.44 µM. Besides, the maximal response in the test on NCI-H295R [2] was -125%.
In the test with NCI-H295R [1], `Oc1ccc(Cl)cc1Sc1cc(Cl)ccc1O` yielded an IC50 of 15 µM. Besides, the maximal response in the test with NCI-H295R [2] was -135%.
For `CN(C)C(=O)CCSC(SCCC(=O)[O-])c1cccc(/C=C/c2ccc3ccc(Cl)cc3n2)c1.[Na+]` (stereo not drawn), in that order: 26.6 µM and -77.8%.
Taken in the same sequence, the figures for `NC(C(C)=C2)=CC=C2/C(C1=CC=C(N)C=C1)=C3/C=CC(C=C3)=N.Cl` were 11.9 µM and -87.4%.
The compound `Clc1ccc(COC(Cn2ccnc2)c2ccc(Cl)cc2Cl)cc1.O=[N+]([O-])O` (stereo not drawn) yielded an IC50 in the test with NCI-H295R [1] of 26.6 µM. Moreover, the maximal response in the test with NCI-H295R [2] was -149%.
In turn, `COC(C(=O)C(O)C(C)O)C1Cc2cc3cc(OC4CC(OC5CC(O)C(O)C(C)O5)C(O)C(C)O4)c(C)c(O)c3c(O)c2C(=O)C1OC1CC(OC2CC(OC3CC(C)(O)C(O)C(C)O3)C(O)C(C)O2)C(O)C(C)O1` (stereo not drawn) displayed an IC50 with NCI-H295R [1] of 1.19 µM. For the same compound, in the test with NCI-H295R [2], the maximal response is -125%.
For `CC(C)(C)c1cc(O)ccc1O`, in that order: 16.8 µM and -139%.
For the compound `O=C1OCCN1/N=C/c1ccc([N+](=O)[O-])o1`, the IC50 in the test with NCI-H295R [1] amounted to 16.8 µM. Further, the maximal response in the test with NCI-H295R [2] was -72.7%.
`COc1ccc(C=CC(=O)c2ccc(OC)cc2OC)cc1` displayed an IC50 with NCI-H295R [1] of 23.7 µM. Further, in the test with NCI-H295R [2], the maximal response was -117%.
In the test with NCI-H295R [1], `[K+].[K+].[O]=[Cr](=[O])([O-])[O][Cr](=[O])(=[O])[O-]` gave an IC50 of 11.9 µM. In addition, the maximal response in the test on NCI-H295R [2] is -166%.
For `CCCCC(=O)OCC(=O)[C@]1(O)Cc2c(O)c3c(c(O)c2[C@@H](O[C@H]2C[C@H](NC(=O)C(F)(F)F)[C@H](O)[C@H](C)O2)C1)C(=O)c1c(OC)cccc1C3=O`, in that order: 13.3 µM and -71.8%.
In the case of `CC[C@@H](C(=O)[C@@H](C)[C@@H](O)[C@H](C)CCc1ccc(C)c(O)c1C(=O)[O-])[C@H]1O[C@](CC)([C@H]2CC[C@](O)(CC)[C@H](C)O2)C[C@@H]1C.[Na+]`, in the test on NCI-H295R [1], the IC50 amounted to 23.7 µM. In the test on NCI-H295R [2], the maximal response is -159%.
In turn, `Cc1cc(-c2ccc(N=Nc3c(S(=O)(=O)[O-])cc4cc(S(=O)(=O)[O-])cc(N)c4c3O)c(C)c2)ccc1N=Nc1c(S(=O)(=O)[O-])cc2cc(S(=O)(=O)[O-])cc(N)c2c1O.[Na+].[Na+].[Na+].[Na+]` came in with an IC50 in the test on NCI-H295R [1] of 11.9 µM. The maximal response with NCI-H295R [2] was -131%.
Taken in the same sequence, the figures for `CCN1/C(=C\C=C\c2ccc3ccccc3[n+]2CC)C=Cc2ccccc21.[I-]` were 23.7 µM and -134%.
The compound `Cl.O=C1CSC2(CCN(CCCN3c4ccccc4Sc4ccc(Cl)cc43)CC2)N1` had an IC50 with NCI-H295R [1] of 21.1 µM. Moreover, the maximal response with NCI-H295R [2] is -136%.
Regarding `Cc1cc(O)c2ccccc2c1O`, in the test on NCI-H295R [1], the concentration for half-maximal inhibition (IC50) was found to be 21.1 µM. For the same compound, the maximal response with NCI-H295R [2] is -137%.
With `CC[C@H](C)[C@H]1O[C@]2(CC[C@@H]1C)C[C@@H]1C[C@@H](C/C=C(\C)[C@@H](O[C@H]3C[C@H](OC)[C@@H](O[C@H]4C[C@H](OC)[C@@H](O)[C@H](C)O4)[C@H](C)O3)[C@@H](C)/C=C/C=C3\CO[C@@H]4[C@H](O)C(C)=C[C@@H](C(=O)O1)[C@]34O)O2`, the IC50 in the test on NCI-H295R [1] was 4.22 µM. Besides, in the test on NCI-H295R [2], the maximal response was -123%.
In the test on NCI-H295R [1], `CCCCCCCCCCCCCCCCOCCOCCOCCOCCOCCOCCOCCOCCOCCOCCOCCOCCOCCOCCOCCOCCOCCOCCOCCOCCO` had a concentration for half-maximal inhibition (IC50) of 13.3 µM. The maximal response in the test on NCI-H295R [2] was -124%.
On to `OC[C@H]1O[C@@H](n2cnc3c(S)ncnc32)[C@H](O)[C@@H]1O`, for which the IC50 in the test with NCI-H295R [1] was 2.99 µM. The maximal response with NCI-H295R [2] is -68.2%.
For `CCCCCCCCCCC[C@@H](C[C@@H]1OC(=O)[C@H]1CCCCCC)OC(=O)C(CC(C)C)NC=O` (stereo partly drawn), in that order: 9.44 µM and -66.3%.
Compound `C/C=C(/C(=C/C)c1ccc(O)cc1)c1ccc(O)cc1` had an IC50 in the test with NCI-H295R [1] of 4.53 µM. The maximal response in the test on NCI-H295R [2] is -68.5%.
`Nc1nc2nc[nH]c2c(=S)[nH]1` registered an IC50 in the test on NCI-H295R [1] of 1.06 µM. The maximal response in the test with NCI-H295R [2] is -74.1%.
In the case of `[C@@]42([C@@]([C@@H](/C/1=C/OC(\C=C\1)=O)CC2)(CC[C@@H]5[C@]\3(CC[C@@H](/C=C/3CC[C@@H]45)O[C@H]6[C@@H]([C@@H]([C@H]([C@@H](O6)C)O)O)O)C)C)O`, the IC50 in the test on NCI-H295R [1] came to 0.0128 µM. Moreover, in the test with NCI-H295R [2], the maximal response was -111%.
In the test with NCI-H295R [1], `O=C\1OC/C(=C/1)[C@H]2CC[C@@]9(O)[C@]2(C)[C@H](O)C[C@H]3[C@H]9CC[C@@H]4C[C@H](CC[C@]34C)O[C@@H]8O[C@H](C)[C@@H](O[C@@H]7O[C@H](C)[C@@H](O[C@@H]6O[C@H](C)[C@@H](O[C@@H]5O[C@H](CO)[C@@H](O)[C@H](O)[C@H]5O)[C@@H](O)C6)[C@@H](O)C7)[C@@H](O)C8` came in with an IC50 of 0.335 µM. Besides, the maximal response in the test with NCI-H295R [2] was -110%.
For `COc1cc(NCc2ccc3nc(N)nc(N)c3c2C)cc(OC)c1OC.Cl.Cl.Cl`, in that order: 0.0133 µM and -80.4%.
For the compound `CCCCCCCCCCCCOCCOCCOCCOCCOCCOCCOCCOCCOCCO`, the IC50 in the test on NCI-H295R [1] was 21.1 µM. Moreover, the maximal response in the test on NCI-H295R [2] is -147%.
In turn, `CC(C)(O)c1ccccc1CC[C@@H](SCC1(CC(=O)[O-])CC1)c1cccc(/C=C/c2ccc3ccc(Cl)cc3n2)c1.[Na+]` showed an IC50 with NCI-H295R [1] of 16.8 µM. Also, in the test with NCI-H295R [2], the maximal response is -142%.
For `Oc1cc[c]([Hg][Cl])cc1`, in the test on NCI-H295R [1], the IC50 is 2.66 µM. Moreover, the maximal response in the test with NCI-H295R [2] is -130%.
Taken in the same sequence, the figures for `CN(C)c1ccc2nc3ccc(N(C)C)cc3[s+]c2c1.[Cl-]` were 15 µM and -109%.
`Nc1ccc2cc3ccc(N)cc3nc2c1.Nc1ccc2cc3ccc(N)cc3nc2c1.O=S(=O)(O)O` came in with an IC50 in the test with NCI-H295R [1] of 18.8 µM. In the test on NCI-H295R [2], the maximal response was -138%.
In the test with NCI-H295R [1], `CCCCCCCCN[C@H](C)C(O)c1ccc(SC(C)C)cc1` (stereo partly drawn) gave an IC50 of 21.1 µM. The maximal response in the test on NCI-H295R [2] was -137%.
Regarding `Oc1c(Cl)cc(Cl)cc1Sc1cc(Cl)cc(Cl)c1O`, the IC50 with NCI-H295R [1] amounted to 13.3 µM. In addition, the maximal response with NCI-H295R [2] was -137%.
The compound `Oc1c(I)cc(Cl)c2cccnc12` had an IC50 with NCI-H295R [1] of 8.41 µM. In the test with NCI-H295R [2], the maximal response was -64.3%.
As to `CCN(CC)CCNc1ccc(CO)c2sc3ccccc3c(=O)c12`, in the test on NCI-H295R [1], the IC50 worked out at 7.5 µM. Further, the maximal response with NCI-H295R [2] was -124%.

Source of the values: the supplement of paper PMC3493320.
